Tested on: skin
Assay: Affymetrix microarray of skin, DBP-4 hr and analogs vs. untreated; gene selection by log-2 fold change, Wilcoxon, Kendall tau (Tables 8, 9)
Format: in vivo, mouse
Conditions: mouse, in vivo

CCCCOC(=O)c1ccccc1C(=O)OCCCC [DBP, dibutylphthalate]
Nrap NM_198059_at ≧2-Fold change: No | Nusap1 NM_133851_at ≧2-Fold change: No | Ogfrl1 NM_001081079_at ≧2-Fold change: No | Olr1 NM_138648_at ≧2-Fold change: No | Otud7a (NM_130880_at) ≧2-Fold change: Yes | Oxr1 NM_001130163_at ≧2-Fold change: No | Oxr1 NM_001130164_at ≧2-Fold change: No | Oxr1 NM_001130165_at ≧2-Fold change: No | Oxr1 NM_001130166_at ≧2-Fold change: No | Pde4b (NM_019840_at) ≧2-Fold change: Yes | Pdk4 (NM_013743_at) ≧2-Fold change: Yes | Pgam2 NM_018870_at ≧2-Fold change: No | Pigyl NM_001082532_at ≧2-Fold change: No | Plaur (NM_011113_at) ≧2-Fold change: Yes | Plek (NM_019549_at) ≧2-Fold change: Yes | Plscr1 (NM_011636_at) ≧2-Fold change: Yes | Pmaip1 (NM_021451_at) ≧2-Fold change: Yes | Pparg NM_001127330_at ≧2-Fold change: No | Ppih NM_001110129_at ≧2-Fold change: No | Prg4 NM_021400_at ≧2-Fold change: No | Prss22 (NM_133731_at) ≧2-Fold change: Yes | Ptges (NM_022415_at) ≧2-Fold change: Yes | Pyy (NM_145435_at) ≧2-Fold change: Yes | Rab20 (NM_011227_at) ≧2-Fold change: Yes | Ramp3 (NM_019511_at) ≧2-Fold change: Yes | Retnla NM_020509_at ≧2-Fold change: No | Rffl NM_001007465_at ≧2-Fold change: No | Rgs1 (NM_015811_at) ≧2-Fold change: Yes | Rn18s NR_003278_at ≧2-Fold change: No | Rnf19b (NM_029219_at) ≧2-Fold change: Yes | Rpl3l NM_025425_at ≧2-Fold change: No | Saa3 (NM_011315_at) ≧2-Fold change: Yes | Slc5a1 (NM_019810_at) ≧2-Fold change: Yes | Slc7a5 (NM_011404_at) ≧2-Fold change: Yes | Slc10a6 (NM_029415_at) ≧2-Fold change: Yes | Slc15a3 (NM_023044_at) ≧2-Fold change: Yes | Slc25a25 (NM_146118_at) ≧2-Fold change: Yes | Slc34a2 (NM_011402_at) ≧2-Fold change: Yes | Slc39a8 (NM_026228_at) ≧2-Fold change: Yes | Slc39a14 NM_001135151_at ≧2-Fold change: No | Slfn2 (NM_011408_at) ≧2-Fold change: Yes | Slfn4 (NM_011410_at) ≧2-Fold change: Yes | Sln NM_025540_at ≧2-Fold change: No | Slpi (NM_011414_at) ≧2-Fold change: Yes | Smox (NM_145533_at) ≧2-Fold change: Yes | Smpx NM_025357_at ≧2-Fold change: No | Stfa3 (NM_025288_at) ≧2-Fold change: Yes | Timp1 (NM_011593_at) ≧2-Fold change: Yes | Tlr2 (NM_011905_at) ≧2-Fold change: Yes | Tnf (NM_013693_at) ≧2-Fold change: Yes | Tnfrsf9 NM_001077508_at ≧2-Fold change: No | Tnfrsf9 NM_001077509_at ≧2-Fold change: No | Tnfrsf12a (NM_013749_at) ≧2-Fold change: Yes | Tnni1 NM_021467_at ≧2-Fold change: No | Trdn NM_029726_at ≧2-Fold change: No | Trf NM_133977_at ≧2-Fold change: No | Trp63 NM_001127259_at ≧2-Fold change: No | Trp63 NM_001127260_at ≧2-Fold change: No | Trp63 NM_001127262_at ≧2-Fold change: No | Trp63 NM_001127264_at ≧2-Fold change: No | Tslp (NM_021367_at) ≧2-Fold change: Yes | Tslp (NR_033206_at) ≧2-Fold change: Yes | Ttn NM_028004_at ≧2-Fold change: No | Tubb6 (NM_026473_at) ≧2-Fold change: Yes | Uap1 (NM_133806_at) ≧2-Fold change: Yes | Wbp1 NM_001083922_at ≧2-Fold change: No | Wbp1 NM_001083923_at ≧2-Fold change: No | Wfdc2 NM_026323_at ≧2-Fold change: No | Zc3h12a (NM_153159_at) ≧2-Fold change: Yes | Zfp36 (NM_011756_at) ≧2-Fold change: Yes | Zfp68 NM_001044747_at ≧2-Fold change: No | Zfp187 NM_001013786_at ≧2-Fold change: No | Zfp518b NM_001081144_at ≧2-Fold change: No | Zfp593 (NM_024215_at) ≧2-Fold change: Yes | Zfp943 NM_001025373_at ≧2-Fold change: No | ≧2-Fold change: No and Yes | ≧2-Fold change: 1810046J19Rik: No | ≧2-Fold change: 4933434E20Rik: No | ≧2-Fold change: Abhd6: No | ≧2-Fold change: Acad8: No | ≧2-Fold change: Ak2: No | ≧2-Fold change: Akr1e1: No | ≧2-Fold change: Avpr1a: No | ≧2-Fold change: B4galt1: No | ≧2-Fold change: Bphl: No | ≧2-Fold change: Cdkl2: No | ≧2-Fold change: Cep70: No | ≧2-Fold change: Cirh1a: No | ≧2-Fold change: Clec14a: No | ≧2-Fold change: Commd4: No | ≧2-Fold change: Cr1l: No | ≧2-Fold change: Cyth1: No | ≧2-Fold change: D16Ertd472e: No | ≧2-Fold change: Dcxr: No | ≧2-Fold change: Dda1: No | ≧2-Fold change: Diablo: No | ≧2-Fold change: Dmap1: No | ≧2-Fold change: Dnajc4: No | ≧2-Fold change: Eid1: No | ≧2-Fold change: Eif6: No | ≧2-Fold change: Erlec1: No | ≧2-Fold change: Fam134b: No | ≧2-Fold change: Fbxo25: No | ≧2-Fold change: Fgf13: No | ≧2-Fold change: Flt1: No | ≧2-Fold change: Fmo5: No | ≧2-Fold change: Ftsj3: No | ≧2-Fold change: Gcnt2: No | ≧2-Fold change: Gmcl1: No | ≧2-Fold change: Gpn3: No | ≧2-Fold change: Gstz1: No | ≧2-Fold change: Gtf2h2: No | ≧2-Fold change: Gtf3a: No | ≧2-Fold change: Hsdl2: No | ≧2-Fold change: Icos: No | ≧2-Fold change: Ifngr1: No | ≧2-Fold change: Inpp5d: No | ≧2-Fold change: Itgax: No | ≧2-Fold change: Itk: No | ≧2-Fold change: Krt17: No | ≧2-Fold change: Map3k14: No | ≧2-Fold change: Mdp1: No | ≧2-Fold change: Meis1: No | ≧2-Fold change: Mkrn3: No | ≧2-Fold change: Mtcp1: No | ≧2-Fold change: Mum1: No | ≧2-Fold change: Myd88: No | ≧2-Fold change: Nagk: No | ≧2-Fold change: Ndufaf3: No | ≧2-Fold change: Nek3: No | ≧2-Fold change: Nfkb2: No | ≧2-Fold change: Nicn1: No | ≧2-Fold change: Nme3: No | ≧2-Fold change: Ntpcr: No | ≧2-Fold change: Orc3: No | ≧2-Fold change: Padi1: No | ≧2-Fold change: Panx1: No | ≧2-Fold change: Pfdn2: No | ≧2-Fold change: Phtf1: No | ≧2-Fold change: Pigp: No | ≧2-Fold change: Pkp4: No | ≧2-Fold change: Plk3: No | ≧2-Fold change: Polr2g: No | ≧2-Fold change: Pparg: No | ≧2-Fold change: Ppp1r7: No | ≧2-Fold change: Prokr1: No | ≧2-Fold change: Ptpn1: No | ≧2-Fold change: Rabgef1: No | ≧2-Fold change: Rai12: No | ≧2-Fold change: Rbbp6: No | ≧2-Fold change: Rpl7l1: No | ≧2-Fold change: Sema4d: No | ≧2-Fold change: Siae: No | ≧2-Fold change: Sirt1: No | ≧2-Fold change: Slc9a3r1: No | ≧2-Fold change: Slc30a4: No | ≧2-Fold change: Slc35a1: No | ≧2-Fold change: Smarcb1: No | ≧2-Fold change: Srsf6: No | ≧2-Fold change: Stx17: No | ≧2-Fold change: Tmed1: No | ≧2-Fold change: Tmem208: No | ≧2-Fold change: Tnfrsf1a: No | ≧2-Fold change: Tnfrsf9: No | ≧2-Fold change: Trappc2l: No | ≧2-Fold change: Tril: No | ≧2-Fold change: Trim12a: No | ≧2-Fold change: Trip4: No | ≧2-Fold change: Trp63: No | ≧2-Fold change: Trpv2: No | ≧2-Fold change: Tsn: No | ≧2-Fold change: Ufc1: No | ≧2-Fold change: Ulk2: No | ≧2-Fold change: Wbp1: No | ≧2-Fold change: Zfp68: No | ≧2-Fold change: Zfp90: No | ≧2-Fold change: Zkscan3: No | ≧2-Fold change: Zkscan6: No

Reference: patent publication US20150307938A1, “METHOD TO IDENTIFY A NOVEL CLASS OF IMMUNOLOGIC ADJUVANTS” (Lancell, L.L.C., priority 2011, published 2015)
